How the values were obtained:
[1] = biological target: N-methyl-D-aspartate (NMDA) receptors; settings: read-out: IC50, noncompetitive block of NMDA receptors; cited from earlier work
kainic acid receptors = settings: read-out: IC50, block of kainic acid receptors; cited from earlier work
MCAO rats = experiment: Rat focal cerebral ischemia-reperfusion model (MCAO), neurological deficit score and cerebral infarction area; type: in vivo; settings: Example 6
Description: The rat focal cerebral ischemia-reperfusion model was established by internal carotid artery suture method. The limbs (hind limbs above the knee joint and forelimbs above the wrist joint) and head of an anesthetized rat were tightened with rubber bands. The animal was fixed on an operating table in supine position, and was shaved with an animal shaver from the head to the chest, and the skin was disinfected with alcohol. The neck of the rat was cut at the midline, and the subcutaneous tissue was bluntly separated. The thin layer of fascia on the surface of the anterior triangle of the neck was separated, the lower side-lower edge of the clavicular hyoid muscle was pulled up, and the longitudinally pulsating artery parallel to this muscle can be seen. The arterial shell was opened, and the bifurcation of the right carotid artery was exposed. The right common carotid artery, external carotid artery and internal carotid artery were separated. The vagus nerve was gently stripped, and the external carotid artery was ligated and cut. The proximal end of the common carotid artery was clamped. An incision was made at the distal end from the ligature of the external carotid artery, and was inserted with a suture line, which was passed through the bifurcation of the common carotid artery into the internal carotid artery, and then was inserted slowly until reaching slight resistance (approximately 20 mm from the bifurcation), so as to block all blood supply to the middle cerebral artery. The suture line was slightly fixed below the incision of the external carotid artery with silk thread. The silk thread clamping the proximal end of the common carotid artery was loosened. A gauze soaked in sterile saline was covered on the wound, and the rat was placed on a heat preservation pad to keep warm. 2.0 h after cerebral ischemia on the right side, the suture line was pulled out gently to restore the blood supply for reperfusion. The external carotid artery was ligated with silk thread fixing the suture line. The skin was stitched, and disinfected. The rats were placed in clean feed, and their general condition and respiration were observed until they woke up from anesthesia. The rats were provided with food and water, and commonly reared.
After the cerebral ischemia model was established, the animals were assigned to each group in a single-blind manner with equal probability. After reperfusion, the animals were immediately administered intravenously with the drugs once. The animals in the model group were administered with an equal volume of normal saline. Neurological deficit symptoms were evaluated 24 hours after cerebral ischemia, the animals were sacrificed, and their brains were taken out, stained, and photographed for determining the area of cerebral infarction.
Neurological deficit symptoms were evaluated using the modified Bederson 5-point scale. The neurological deficit symptoms of rats after cerebral ischemia were evaluated by a single-blind method. […] After scoring, the scoring results of various markers were submitted to the designer, who unblinded and obtained the scoring of each animal in each experimental group.
The degree of cerebral infarction was determined by TTC staining. After the evaluation of the symptoms of neurological deficits was completed, the animals were sacrificed with CO2. The brain was taken out by cutting off head. The olfactory bulb, cerebellum and lower brainstem were removed. The blood on the surface of the brain was washed with normal saline, and the residual water on the surface was removed. The brain was placed at −20° C. for 20 min, then taken out, immediately cut to a coronal section vertically downward at the crossing plane of the line of sight, and sliced backward every 2 mm. The brain slices were incubated in 1% TTC staining solution (at 37° C. for 30 min). The normal brain tissue was stained into dark red, and the ischemic brain tissue was stained into pale white.

[2] = biological target: T1, recombinant human GABAAR (α1β2γ2L) (Homo sapiens, UniProt P14867+P18507+P47870); settings: Xenopus laevis oocytes, cited from earlier work
T1 construct: host or cells: Xenopus laevis oocytes

primary cortical neurons = experiment: NMDA-induced excitatory injury test on primary cortical neurons (Luminescent Cell Viability Assay); type: cell-based, rat
Method: Pregnant SD rats at 18 days of pregnancy were sacrificed by cervical dislocation. The uterus of rats was dissected and the brain of E18 fetal rats was taken out. The cerebral cortex tissue of the fetal rats was separated into ice-cold DMEM. The meninges and blood vessels on the cortical tissue were removed under a dissecting microscope. The cortical tissue was transferred into ice-cold DMEM, cut into pieces (about 1 mm^3), and digested with trypsin at 37° C. for 10 min. The digestion was stopped with FBS. The obtained cells were blown gently with a Pasteur pipette and passed through a 200-mesh sieve. The filtered cell suspension was transferred to a 15 mL centrifuge tube, and centrifuged at 1000 rpm for 5 min. The supernatant was discarded. Then the cell mass at the bottom of the centrifuge tube was blown gently with 37° C.-prewarmed complete medium (Neurobasal+B27+GlutaMax+1% P/S). The cells were counted using a hemocytometer, diluted to 5×10^5 cells/mL with complete medium, and seeded in a 96-well plate coated with PDL (100 μL/well). Half of the cell culture medium was replaced with complete medium the next day. […] After the inducing buffer was discarded, the cells were washed once with a Locke's buffer containing 1 mM MgCl2, and recovered to be incubated for 4 h by replacing with a complete medium (100 μL/well). The viability of the primary neuron cells was determined by Luminescent Cell Viability Assay kit. According to the instruction, reagents were added at 100 μL/well, and shaking was performed for 10 min. […] Calculation formula: relative neuron activity V (%)=(LUM-LUMbackground)/(LUMnormal control group-LUMbackground group)×100%. LUMbackground was the background reading of the Luminescent Cell Viability Assay reagent added to the cell-free complete medium well. […] Fitting of EC50 of compounds: Log[compound concentration] was used as the abscissa and the relative inhibition rate was used as the ordinate. Log(inhibitor) vs. response-variable slope (four parameters) curve was fitted by Prism8 (GraphPad) to obtain the IC50 of the compounds. […] After the inducing buffer was discarded, the cells were washed once with a Locke's buffer containing 1 mM MgCl2, and recovered to be incubated for 4 h by replacing with a complete medium (100 μL/well). […] After the inducing buffer was discarded, the cells were washed once with a Locke's buffer containing 1 mM MgCl2, and recovered to be incubated for 4 h by replacing with a complete medium (100 μL/well). […] After the inducing buffer was discarded, the cells were washed once with a Locke's buffer containing 1 mM MgCl2, and recovered to be incubated for 4 h by replacing with a complete medium (100 μL/well). […] After the inducing buffer was discarded, the cells were washed once with a Locke's buffer containing 1 mM MgCl2, and recovered to be incubated for 4 h by replacing with a complete medium (100 μL/well).

T1 sequence (P14867 28-456): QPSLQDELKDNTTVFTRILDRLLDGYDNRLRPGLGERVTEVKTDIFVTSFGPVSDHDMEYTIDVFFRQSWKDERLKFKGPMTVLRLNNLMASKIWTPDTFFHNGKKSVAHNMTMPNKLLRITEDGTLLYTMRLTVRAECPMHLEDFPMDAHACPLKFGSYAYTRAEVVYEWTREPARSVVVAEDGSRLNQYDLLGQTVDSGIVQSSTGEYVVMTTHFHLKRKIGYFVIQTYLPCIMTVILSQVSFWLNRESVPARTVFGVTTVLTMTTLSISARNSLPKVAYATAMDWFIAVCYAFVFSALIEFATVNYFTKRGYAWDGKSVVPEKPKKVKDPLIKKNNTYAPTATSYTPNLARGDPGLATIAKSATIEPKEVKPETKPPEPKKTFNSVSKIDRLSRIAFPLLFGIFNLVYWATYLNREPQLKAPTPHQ
T1 sequence (P47870 25-512 limits assumed): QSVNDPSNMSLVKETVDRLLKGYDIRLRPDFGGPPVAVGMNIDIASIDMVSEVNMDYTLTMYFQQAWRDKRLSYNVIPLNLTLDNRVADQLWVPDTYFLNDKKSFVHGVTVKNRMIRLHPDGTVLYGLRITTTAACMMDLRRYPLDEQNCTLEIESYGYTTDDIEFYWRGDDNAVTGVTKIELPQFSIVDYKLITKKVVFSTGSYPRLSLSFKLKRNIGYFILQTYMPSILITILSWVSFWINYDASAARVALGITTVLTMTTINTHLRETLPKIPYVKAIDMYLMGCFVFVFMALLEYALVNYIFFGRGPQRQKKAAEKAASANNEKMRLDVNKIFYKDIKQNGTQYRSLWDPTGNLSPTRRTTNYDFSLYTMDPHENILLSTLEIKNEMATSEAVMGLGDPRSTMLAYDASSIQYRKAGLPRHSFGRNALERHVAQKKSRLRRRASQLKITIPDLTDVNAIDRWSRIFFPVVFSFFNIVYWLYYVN
T1 sequence (P18507 40-475): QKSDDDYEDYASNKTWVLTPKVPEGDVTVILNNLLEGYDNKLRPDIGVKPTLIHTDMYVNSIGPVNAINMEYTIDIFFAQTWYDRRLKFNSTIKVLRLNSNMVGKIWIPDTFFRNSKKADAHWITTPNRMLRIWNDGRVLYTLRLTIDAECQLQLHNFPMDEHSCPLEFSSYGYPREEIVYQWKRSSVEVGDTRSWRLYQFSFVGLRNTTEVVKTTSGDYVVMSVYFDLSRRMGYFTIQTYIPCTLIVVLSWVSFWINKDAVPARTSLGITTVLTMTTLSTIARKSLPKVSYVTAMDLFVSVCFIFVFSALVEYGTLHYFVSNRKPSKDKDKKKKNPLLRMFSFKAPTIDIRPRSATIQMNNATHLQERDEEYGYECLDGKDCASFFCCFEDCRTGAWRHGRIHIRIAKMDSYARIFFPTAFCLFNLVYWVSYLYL

## Nc1nc2ccc(OC(F)(F)F)cc2s1 [Riluzole, 2-Amino-6-trifluoromethoxybenzothiazole]
[1]
  IC50: 18 µM
Kainic acid receptors
  IC50: 167 µM
MCAO rats; 8 mg/kg i.v. once after reperfusion, 24 hours
  neurological deficit score vs MCAO model group: significantly reduced

## CC1(C)[C@@H]2CC[C@@]1(C)[C@@H](O)C2 [(+)-2-Borneol]
[2]; low concentration of GABA, read-out: EC50, enhancement of GABAAR function
  EC50: 248 µM
[2]
  enhancement of function of GABAAR induced by low concentration of GABA: more than 10 times
Primary cortical neurons; Example 1, 0.41-3.7 μM
  viability of neurons with excitatory injury: concentration-dependently increased
Primary cortical neurons; Example 1, 10-100 μM
  viability of neurons with excitatory injury: tended to decrease
Primary cortical neurons; Example 2, alone at 3.7 μM
  viability of neurons with NMDA-induced excitatory injury: significantly improve
Primary cortical neurons; Example 3, (+)-2-borneol 0.5 μM
  Fa, protecting neurons from excitatory injury: 0.014
Primary cortical neurons; Example 3, (+)-2-borneol 1 μM
  Fa, protecting neurons from excitatory injury: 0.022
Primary cortical neurons; Example 3, (+)-2-borneol 2 μM
  Fa, protecting neurons from excitatory injury: 0.152
Primary cortical neurons; Example 3, (+)-2-borneol 4 μM
  Fa, protecting neurons from excitatory injury: 0.22
Primary cortical neurons; Example 3, (+)-2-borneol 8 μM
  Fa, protecting neurons from excitatory injury: 0.231
Primary cortical neurons; Example 3, riluzole 10-160 μM, (+)-2-borneol 0.5-8 μM, compositions 20:1
  viability of neurons with injury induced by NMDA: concentration-dependently increase
Primary cortical neurons; Example 4, (+)-2-borneol 0.5 μM
  Fa, protecting neurons from excitatory injury: 0.042
Primary cortical neurons; Example 4, (+)-2-borneol 1 μM
  Fa, protecting neurons from excitatory injury: 0.069
Primary cortical neurons; Example 4, (+)-2-borneol 2 μM
  Fa, protecting neurons from excitatory injury: 0.086
Primary cortical neurons; Example 4, (+)-2-borneol 4 μM
  Fa, protecting neurons from excitatory injury: 0.209
Primary cortical neurons; Example 4, (+)-2-borneol 8 μM
  Fa, protecting neurons from excitatory injury: 0.205
Primary cortical neurons; Example 4, riluzole 2.5-40 μM, (+)-2-borneol 0.5-8 μM, compositions 5:1
  viability of neurons with injury induced by NMDA: concentration-dependently increase
Primary cortical neurons; Example 5, (+)-2-borneol 0.5 μM
  Fa, protecting neurons from excitatory injury: 0.042
Primary cortical neurons; Example 5, (+)-2-borneol 1 μM
  Fa, protecting neurons from excitatory injury: 0.077
Primary cortical neurons; Example 5, (+)-2-borneol 2 μM
  Fa, protecting neurons from excitatory injury: 0.128
Primary cortical neurons; Example 5, (+)-2-borneol 4 μM
  Fa, protecting neurons from excitatory injury: 0.205
Primary cortical neurons; Example 5, (+)-2-borneol 8 μM
  Fa, protecting neurons from excitatory injury: 0.202
Primary cortical neurons; Example 5, riluzole 0.5-8 μM, (+)-2-borneol 0.5-8 μM, compositions 1:1
  viability of neurons with injury induced by NMDA / protective effect: concentration-dependently increase
Primary cortical neurons; Rattus norvegicus, Primary cortical neuron, Example 1, concentration-inhibition rate curve, read-out: Emax (relative inhibition rate)
  Emax: 15%
MCAO rats; 1 mg/kg i.v. once after reperfusion, 24 hours
  neurological deficit score vs MCAO model group: significantly reduced
MCAO rats; 0.5 and 1 mg/kg i.v. once after reperfusion, 24 hours
  cerebral infarction area vs MCAO model group: dose-dependently, significantly reduced
MCAO rats; (+)-2-borneol 0.5 mg/kg
  Fa, reducing the area of cerebral infarction in MCAO rats: 0.157
MCAO rats; (+)-2-borneol 1 mg/kg
  Fa, reducing the area of cerebral infarction in MCAO rats: 0.256
MCAO rats; i.v. once after reperfusion, evaluated 24 hours after cerebral ischemia
  neurological deficit score of MCAO rats, dose dependence: dose-dependently reduce
